# Assay results published in patent publication US20210361639A1, “SOLID COMPOSITIONS OF ACTIVES, PROCESSES FOR PREPARING SAME AND USES OF SUCH SOLID COMPOSITIONS” (The University of Liverpool, priority 2018, published 2021).
# Experiments:
# [1] = Multiple oral dose (every 6 hours) pharmacokinetics of atazanavir; assay type: in vivo, Wistar rats; conditions: multiple oral dose 10 mg/kg atazanavir every 6 hours, steady state, rat plasma
# Method: All animal work was conducted in accordance with the Animals (Scientific Procedures) Act 1986 (ASPA) implemented by the UK Home Office. The rodents were housed with environmental enrichment and a 12 h light/dark cycle at 21° C.±2° C. Free access to food and water was provided at all times. Following 7-days acclimatisation, adult male Wistar rats (280-330 g) were dosed with 10 mg Kg^−1 atazanavir at 5 μCi/mg, either as a conventional [^3H]-atazanavir preparation (<5% DMSO) or as a [^3H]^ATVSDNF68/T20 nanodispersion using a 7-cm curved gavage needle. Subsequent doses were administered at 6 hour intervals. Subsequently, trough blood samples were collected (0.15 ml) every 12 h post-dosing from the lateral tail vein. Steady state PK blood samples were taken at 60, 61, 62, 62.5, 63, 64 and 66 h post first dose. At 66 h, the rats were sacrificed using cardiac puncture under terminal anaesthesia (isoflurane/oxygen), followed by immediate exsanguination of blood from the heart. Subsequently, an overdose of sodium pentobarbitone was administered using the same in situ puncture needle. Blood samples were collected in heparinised Eppendorf tubes and centrifuged at 3,000 rpm for 5 min. The plasma layer was collected and stored at −20° C. prior to analysis.
# [2] = Single oral dose pharmacokinetics of atazanavir; set-up: species or system Wistar rats; conditions: male, Wistar, rat, in vivo, 10 mg/kg
# Method: All animal work was conducted in accordance with the Animals (Scientific Procedures) Act 1986 (ASPA) implemented by the UK Home Office. The rodents were housed with environmental enrichment and a 12 h light/dark cycle at 21° C.±2° C. Free access to food and water was provided at all times during acclimatisation. Following 7-days acclimatisation, adult male Wistar rats (280-330 g) were fasted overnight and dosed with 10 mg Kg^−1 atazanavir at 10 μCi/mg, either as a conventional [^3H]-atazanavir preparation (<5% DMSO) or as a [^3H]-^ATVSDNF68/T20 nanodispersion using a 7-cm curved gavage needle. Subsequently, blood samples were collected (0.2 ml) at 1, 2, 2.5, 3, 6 and 12 h post-dosing from the tail vein. At 24 h, the rats were sacrificed using cardiac puncture under terminal anaesthesia (isoflurane/oxygen), followed by immediate exsanguination of blood from the heart. Subsequently, an overdose of sodium pentobarbitone was administered using the same in situ puncture needle. Blood samples were collected in heparinised Eppendorf tubes and centrifuged at 3,000 rpm for 5 min. The plasma layer was collected and stored at −20° C. prior to analysis.
structure (smiles),measurement,setting,value
"COC(=O)N[C@H](C(=O)N[C@@H](Cc1ccccc1)[C@@H](O)CN(Cc1ccc(-c2ccccn2)cc1)NC(=O)[C@@H](NC(=O)OC)C(C)(C)C)C(C)(C)C [Aqueous atazanavir, atazanavir]",AUC(0-t),"[1]; male, Wistar",15500 ng·h/mL
same,Cmax,"[1]; male, Wistar",3090 ng/mL
same,Tmax,"[1]; male, Wistar",1 h
same,Cmin,[1],1799 ng/mL
same,AUC(0-t),[2],60400 ng·h/mL
same,Cmax,[2],4870 ng/mL
same,Cmin,[2],1986 ng/mL
same,Tmax,[2],2 h
